60 compounds from the Bradley open melting point set (2014) can be followed below.

Several values for one entry are separate records, joined by “and”; a condition that tells them apart may be missing. Equal entries are not always repeated.

As to `CCCCCCCCCCc1ccccc1` [decylbenzene], the melting point (as a rule, the temperature, or range, at which the solid turns liquid) is -14 °C.

`NC12CC3CC(CC(C3)C1)C2` [Amantadine] registered a melting point of 180 °C. On to `C[C@@H](NC(=O)OC(C)(C)C)C(=O)O` [N-boc-D-alanine], for which the melting point came to 83 °C. Turning to `Cc1cc(C)c(N=C=O)c(C)c1` [2,4,6-trimethylphenyl isocyanate], the melting point came out at 45 °C. With `Cc1cccc(B(O)O)c1C` [2,3-dimethylbenzeneboronic acid], the melting point is 175 °C.

Compound `CC(O)c1c(F)c(F)c(F)c(F)c1F` (stereo not given) [1-(pentafluorophenyl)ethanol] gave a melting point of 33 °C.

`CCCCCCCCCCCCCCCCC` [N-heptadecane] displayed a melting point of 22 °C. `CC/N=c1/nc(Cl)[nH]/c(=N\C(C)C)[nH]1` [Atrazine] showed a melting point of 177 °C. `c1ccc2c(c1)sc1ccccc12` [dibenzothiophene] had a melting point of 99 °C.

As for `CC(C)(C)c1cc(C(C)(C)C)cc(C(C)(C)C)c1` [1,3,5-tri-tert-butylbenzene], the melting point turned out to be 71 °C.

In turn, `C=CC(=O)NCCNC(=O)C=C` [N,N'-ethylenebisacrylamide] returned a melting point of 142 °C.

In the case of `OCc1ccco1` [furfuryl alcohol], the melting point is -31 °C. For `Nc1cccc2c1C(=O)c1ccccc1C2=O` [1-aminoanthraquinone] the value was 254 °C; for `O=C1CS/C(=N\c2ccccc2)N1c1ccccc1` [OSM-S-47], 176 °C; for `Brc1ccc2ccccc2c1` [2-bromonaphthalene], 55 °C. On to `O=C1CCC2CCc3ccccc3C2O1` (stereo not given) [3,4,4a,5,6,10b-hexahydro-2H-benzo[h]chromen-2-one], for which the melting point turned out to be 139 °C. Compound `CC(C)COC(=O)C(C)C` [isobutyl_isobutyrate] displayed a melting point of -80 °C. Take `O=C(O)CC(O)C(=O)O` (racemic) [dl-malic acid]: the melting point came to 132 °C. Under `N#CCc1ccc(I)cc1` [4-iodophenylacetonitrile] stands 53 °C; under `c1ccc(Cc2ccccc2)cc1` [diphenylmethane], 90.5 °C; under `Cc1c(Cl)cccc1Cl` [2,6-dichlorotoluene], 2 °C. In turn, `Fc1cc(OCc2ccccc2)ccc1Br` [4-benzyloxy-1-bromo-2-fluorobenzene] gave a melting point of 34 °C. In turn, `CC(=O)c1cc(Cl)ccc1Cl` [2',5'-dichloroacetophenone] returned a melting point of 12 °C.

With `O=Cc1ccc(-c2ccccc2)cc1` [p-phenylbenzaldehyde], the melting point came out at 60 °C. For `CCOC(=O)c1cc(C)n(C2=CC(C)N=N2)n1` (stereo not given) [ethyl 5,5'-dimethyl-1'H-1,3'-bipyrazole-3-carboxylate] the value was 121 °C; for `COc1ccc2c(c1)CCCC2=O` [6-methoxy-1-tetralone], 79 °C. On to `CCCCCC(=O)O` [hexanoic acid], for which the melting point is -3 °C.

`C[C@]12CCC(=O)C=C1CC[C@@H]1[C@@H]2CC[C@@]2(C)[C@H]1CC[C@]2(C)O` [17a-Methyltestosterone]: the melting point amounted to 163 °C. The compound `C1=CC2=NC3=C(CCCC3)C2=CC1` [1,2,3,4-TETRAHYDROCARBAZOLE] gave a melting point of 118 °C. For the compound `O=C(O)CCl` [chloroacetic acid], the melting point amounted to 62 °C. Compound `COC(=O)[C@]1(C(=O)O)[C@@H]2CCC[C@@H]21` registered a melting point of 137 °C. Turning to `Cc1ccc(CNC2=CC(=O)c3ccccc3C2=O)nc1` [2-{[(5-methylpyridin-2-yl)methyl]amino}naphthalene-1,4-dione], the melting point amounted to 135 °C. `CC1(C)O[C@@H](CO)[C@H](CO)O1` [2,3-o-isopropylidene-l-threitol] registered a melting point of 47 °C.

With `CCCCCCCCCCC(=O)O` [undecanoic acid], the melting point came out at 28.6 °C. For `CCOC(=O)CCC(C)C1CCC2C3C(=O)C(Br)C4CC(OC(C)=O)CCC4(C)C3CC(OC(C)=O)C12C` (stereo not given) [ethyl 3,12-bis(acetyloxy)-6-bromo-7-oxocholan-24-oate], the melting point was determined as 125 °C. Take `O=C(Cl)c1ccc([N+](=O)[O-])cc1` [4-nitrobenzoyl chloride]: the melting point is 73 °C. With `Nc1ccc(N)cc1` [p-phenylenediamine], the melting point is 140 °C. `COc1ccccc1OCC(O)CO` (stereo not given) [3-(2-methoxyphenoxy)-1,2-propanediol]: the melting point came out at 81 °C.

On to `O=[N+]([O-])c1cc[n+]([O-])c(Cl)c1` [2-chloro-4-nitropyridine n-oxide], for which the melting point is 154 °C.

The compound `O=C(O)c1ccco1` [furoic acid] had a melting point of 134 °C. As for `COc1ccc(CCN2CCC(Nc3nc4ccccc4n3Cc3ccc(F)cc3)CC2)cc1` [astemizole], the melting point amounted to 149 °C. As for `Cc1cccc(O)c1C` [2,3-dimethylphenol], the melting point was 75 °C and 72.5 °C.

In the case of `CCCCCCCCCCCCO[C@@H]1O[C@H](CO)[C@@H](O[C@H]2O[C@H](CO)[C@@H](O)[C@H](O)[C@H]2O)[C@H](O)[C@H]1O` [Dodecyl 4-O-alpha-D-glucopyranosyl-beta-D-glucopyranoside], the melting point stood at 150 °C. With `Cc1ccccc1CNC(=S)Nc1ccccc1` [1-(2-methylbenzyl)-3-phenylthiourea], the melting point turned out to be 163 °C. Regarding `Cc1cccc(C)c1O` [2,6-dimethylphenol], the melting point came to 46 °C. The compound `Cc1cc(C)c(C)c(Br)c1C` [1-bromo-2,3,5,6-tetramethylbenzene] yielded a melting point of 60 °C. For `CC1(C)COB(B2OCC(C)(C)CO2)OC1` [bis(neopentyl glycolato)diboron] the value was 183 °C; for `O=[N+]([O-])c1ccc(F)cc1F` [2,4-difluoro-1-nitrobenzene], 10 °C. In turn, `CI` [iodomethane] gave a melting point of -66 °C. `Cc1c(C2(c3cc(Br)c(O)c(Br)c3C)OS(=O)(=O)c3ccccc32)cc(Br)c(O)c1Br` registered a melting point of 225 °C. Under `Cn1cnc2c1c(=O)[nH]c(=O)n2C` [theobromine] stands 357 °C. Compound `CC(=O)NC1CCCCC(NC(C)=O)CCCC1` (stereo not given) [N,N'-cyclodecane-1,6-diyldiacetamide] had a melting point of 256 °C. Consider `N#CCc1ccccc1[N+](=O)[O-]` [2-nitrophenylacetonitrile], for which the melting point came out at 83 °C. Under `O=[N+]([O-])c1cc([N+](=O)[O-])c(C(Br)=Cc2ccccc2)cc1/C=C\c1ccccc1` stands 175 °C. The compound `OC1CC2=C(CCCC2)CC1O` (stereo not given) [1,2,3,4,5,6,7,8-octahydronaphthalene-2,3-diol] returned a melting point of 121 °C. `C[C@]12CCC(=O)C=C1CC[C@@H]1[C@@H]2C(=O)C[C@@]2(C)[C@H]1CC[C@]2(O)C(=O)CO` [cortisone]: the melting point came out at 222 °C. In the case of `CC(=O)Oc1ccccc1C(=O)O` [aspirin], the melting point was determined as 142 °C.

The compound `O=C1OC(c2ccc(O)c3ccccc23)(c2ccc(O)c3ccccc23)c2ccccc21` [alpha-naphtholphthalein] yielded a melting point of 239 °C. Under `NNC(=O)c1ccncc1` [Isoniazid] stands 171 °C. `c1ccc(-c2csc(-c3cccnc3)n2)cc1` [4-phenyl-2-(3-pyridyl)thiazole] displayed a melting point of 54 °C.
